Measured values from patent publication US20180161290A1, “Dosage Regimen of Diaryl Sulfide Derivatives” (Novartis AG, priority 2010, published 2018).

Tests used:
healthy subjects [1] = test: Multiple ascending dose study in healthy subjects: effect on heart rate (Example 1); format: in vivo, human; conditions: 0.3, 0.6, 1.2, 2 and 3 mg once daily, hourly average heart rate, FIG. 1
Description: The effect on heart rate of 2-amino-2-[4-(3-benzyloxyphenylthio)-2-chlorophenyl]ethyl propane-1,3-diol (Compound A, or KRP203) was measured in healthy subjects over a period of 28 days and compared to placebo.
(§1) Multiple ascending doses of compound A were investigated in healthy subjects. 60 subjects in 5 cohorts (12 subjects per cohort) were dosed at 0.3 mg, 0.6 mg, 1.2 mg and 3 mg once daily for 14 days and at 2 mg for 28 days. In each cohort, subjects were randomised between compound A (9 subjects) and placebo (3 subjects).
The day 28 graphic compares placebo and 2 mg dose.

healthy male volunteers = test: Double blind, placebo controlled, dose titration, once daily multiple oral dose study (Example 2); format: in vivo, human; conditions: for hourly minimum HR (heart rate) change from baseline: FIG. 3
Description: A total of 56 healthy male volunteers were enrolled in a double blind, parallel, placebo controlled, dose titration, once daily, multiple oral dose study. 53 (95%) subjects completed the study.
Increasing doses of 2-amino-2-[4-(3-benzyloxyphenylthio)-2-chlorophenyl]ethyl-propane-1,3-diol (Compound A) starting at 0.3 mg o.d. or 0.5 mg o.d. and ending at the maximal therapeutic dose of 2 mg o.d. were administered to the subjects as specified in Table 1 below.
Each subject participated in a maximal 21-day Screening period, a Baseline period (Day −2), Run-in period (Day −1), a 21-day treatment period, 14-day Follow up period (with a Follow up visit on Day 35) and study completion assessments on Day 42. Subjects were assigned to one of the four groups (#1 or #2 dose titration group, placebo- or fixed-dose group) and received the once daily (o.d.) treatment in a double blinded manner.
On Day -1 (Run-in), all subjects received placebo and underwent baseline assessments including 24 hour Holter monitoring.
All the study drugs were administered between 8:00 and 8:30, immediately after modest breakfast started 30 min prior to dosing. Dosing was performed as closely as practically possible between the subjects (e.g. within 15 min).
The primary variable, the daily number of bradycardia episodes as defined in the primary objective, were modeled by means of a repeated Poisson model adjusted for the number of bradycardia episodes at Baseline, the day, the treatment, and the treatment-by-day interaction. Generalized Estimating Equations were used to estimate the parameters of the model, including the mean (and 95% CI) number of bradycardia episodes for each treatment group on each day.
The primary objective of the study was assessed from the estimated ratio, obtained from the model above, between the mean number of bradycardia episodes on each ‘dose increase day’ in each titration regimen versus the mean number of bradycardia episodes on Day 1 in the fixed-dose group, and from the 95% CI for this ratio.
The treatment effect in term of other measures of bradycardia, including the change from baseline in hourly (daily) minimum and mean heart rates, was also investigated using an appropriate model.

healthy subjects [2] = test: Multiple ascending dose study in healthy subjects: blood lymphocyte levels; format: in vivo, human
Description: For example in tests on healthy subjects, the maximum percent decrease (geometric mean, 95% confidence interval) from pre-dose blood lymphocyte levels during once daily dosing of compound A for 14 days (28 days for the 2 mg dose level) in healthy subjects was 39% for 0.3 mg, 65% for 0.6 mg, 74% for 1.2 mg, 83% for 2 mg and 77% for 3 mg. The corresponding reduction in the placebo group was 29%, which may be explained by the normal lymphocyte level variability and the definition of the endpoint.
as §1

healthy subjects [3] = conditions: 1.25 mg of FTY720; cited from earlier work

Row | Structure (SMILES) | decrease in heart rate following dosing (healthy subjects [1]) | hourly minimum HR (heart rate) change from baseline (healthy male volunteers; after Day 13, all subjects) | safety and tolerability (healthy male volunteers; both titration regimens) | AE (adverse events) profile (healthy male volunteers; dose titration groups versus placebo) | hourly minimum HR (heart rate) change from baseline (healthy male volunteers; fixed dose regimen 2 mg o.d.) | number of bradycardia episodes per day (healthy male volunteers; titration regimens T#1 and T#2 versus fixed dose 2 mg day 1, FIG. 2) | SAEs (severe adverse events) (healthy male volunteers; titration study, 21-day treatment) | maximum percent decrease (geometric mean) from pre-dose blood lymphocyte levels (healthy subjects [2]; 0.3 mg once daily for 14 days) | maximum percent decrease (geometric mean) from pre-dose blood lymphocyte levels (healthy subjects [2]; 0.6 mg once daily for 14 days) | maximum percent decrease (geometric mean) from pre-dose blood lymphocyte levels (healthy subjects [2]; 1.2 mg once daily for 14 days) | maximum percent decrease (geometric mean) from pre-dose blood lymphocyte levels (healthy subjects [2]; 2 mg once daily for 28 days) | maximum percent decrease (geometric mean) from pre-dose blood lymphocyte levels (healthy subjects [2]; 3 mg once daily for 14 days) | decrease in heart rate (healthy subjects [3])
1 | NC(CO)(CO)CCc1ccc(Sc2cccc(OCc3ccccc3)c2)cc1Cl [Compound A, 2-amino-2-[4-(3-benzyloxyphenylthio)-2-chlorophenyl]ethyl-propane-1,3-diol] | observed to increase with increasing dosage | no decrease in HR compared to matched baseline | safe and well tolerated | No discernable difference | maximum decrease in HR on Days 1 & 2 compared to the 2 titration regimens and resolved by day 5 | Both titration regimens had less bradycardic episodes compared to fixed dose day 1 | No SAEs (severe adverse events) were reported | 39% | 65% | 74% | 83% | 77% | –
2 | CCCCCCCCc1ccc(CCC(N)(CO)CO)cc1 [FTY720] | – | – | – | – | – | – | – | – | – | – | – | – | approximately 8 beats/min
